Laboratory results reported in ChEMBL document CHEMBL4270599, “Synthesis of a 3'-C-ethynyl-β-d-ribofuranose purine nucleoside library: Discovery of C7-deazapurine analogs as potent antiproliferative nucleosides” (Eur J Med Chem, 2018).

Tests used:
Format in all cases: functional
[1] = test system: KM12; experiment: Growth inhibition of human KM12 cells assessed as cell growth at 10^-8 M incubated for 48 hrs by sulforhodamine B assay relative to control; conditions: KM12, 48 h, read-out: Activity
[2] = test system: SF-295; experiment: Cytotoxicity against human SF295 cells after 48 hrs by SRB assay; conditions: SF-295, 48 h; for GI50: read-out: GI50; for CC50: read-out: LC50 (the source's name); for TGI: read-out: TGI
[3] = test system: U-251; experiment: Growth inhibition of human U251 cells assessed as cell growth at 10^-4 M incubated for 48 hrs by sulforhodamine B assay relative to control; conditions: U-251, 48 h, read-out: Activity
[4] = test system: UO-31; experiment: Growth inhibition of human UO31 cells assessed as cell growth at 10^-8 M incubated for 48 hrs by sulforhodamine B assay relative to control; conditions: UO-31, 48 h, read-out: Activity
[5] = test system: A498; experiment: Growth inhibition of human A498 cells assessed as cell growth at 10^-7 M incubated for 48 hrs by sulforhodamine B assay relative to control; conditions: A498, 48 h, read-out: Activity
[6] = test system: KM12; experiment: Growth inhibition of human KM12 cells assessed as cell growth at 10^-6 M incubated for 48 hrs by sulforhodamine B assay relative to control; conditions: KM12, 48 h, read-out: Activity
[7] = test system: RPMI-8226; experiment: Growth inhibition of human RPMI8226 cells assessed as cell growth at 10^-7 M incubated for 48 hrs by sulforhodamine B assay relative to control; conditions: RPMI-8226, 48 h, read-out: Activity
[8] = test system: HCT-15; experiment: Cytotoxicity against human HCT15 cells after 48 hrs by SRB assay; conditions: HCT-15, 48 h; for GI50: read-out: GI50
[9] = test system: CCRF-CEM; experiment: Growth inhibition of human CCRF-CEM cells assessed as cell growth at 10^-7 M incubated for 48 hrs by sulforhodamine B assay relative to control; conditions: read-out: Activity
[10] = test system: SW-620; experiment: Growth inhibition of human SW620 cells assessed as cell growth at 10^-7 M incubated for 48 hrs by sulforhodamine B assay relative to control; conditions: SW-620, 48 h, read-out: Activity
[11] = test system: SF-539; experiment: Growth inhibition of human SF539 cells assessed as cell growth at 10^-8 M incubated for 48 hrs by sulforhodamine B assay relative to control; conditions: SF-539, 48 h, read-out: Activity
[12] = test system: MOLT-4; experiment: Growth inhibition of human MOLT4 cells assessed as cell growth at 10^-6 M incubated for 48 hrs by sulforhodamine B assay relative to control; conditions: MOLT-4, 48 h, read-out: Activity
[13] = test system: NCI-H322M; experiment: Cytotoxicity against human NCI-H322M cells after 48 hrs by SRB assay; conditions: for GI50: read-out: GI50; for TGI: read-out: TGI; for CC50: read-out: pLC50 (the source's name) (converted)
[14] = test system: SW-620; experiment: Growth inhibition of human SW620 cells assessed as cell growth at 10^-8 M incubated for 48 hrs by sulforhodamine B assay relative to control; conditions: SW-620, 48 h, read-out: Activity
[15] = test system: EKVX; experiment: Cytotoxicity against human EKVX cells after 48 hrs by SRB assay; conditions: for TGI: read-out: TGI
[16] = test system: UACC-62; experiment: Cytotoxicity against human UACC62 cells after 48 hrs by SRB assay; conditions: UACC-62, 48 h; for CC50: read-out: LC50 (the source's name)
[17] = test system: SNB-75; experiment: Growth inhibition of human SNB75 cells assessed as cell growth at 10^-8 M incubated for 48 hrs by sulforhodamine B assay relative to control; conditions: SNB-75, 48 h, read-out: Activity
[18] = test system: DU-145; experiment: Cytotoxicity against human DU145 cells after 48 hrs by SRB assay; conditions: DU-145, 48 h; for GI50: read-out: GI50; for CC50: read-out: pLC50 (the source's name) (converted)
[19] = test system: NCI-H522; experiment: Growth inhibition of human NCI-H522 cells assessed as cell growth at 10^-8 M incubated for 48 hrs by sulforhodamine B assay relative to control; conditions: NCI-H522, 48 h, read-out: Activity
[20] = test system: A549; experiment: Growth inhibition of human A549/ATCC cells assessed as cell growth at 10^-7 M incubated for 48 hrs by sulforhodamine B assay relative to control; conditions: A549, 48 h, read-out: Activity
[21] = test system: PC-3; experiment: Growth inhibition of human PC3 cells assessed as cell growth at 10^-7 M incubated for 48 hrs by sulforhodamine B assay relative to control; conditions: PC-3, 48 h, read-out: Activity
[22] = test system: NCI-H460; experiment: Cytotoxicity against human NCI-H460 cells after 48 hrs by SRB assay; conditions: NCI-H460, 48 h; for TGI: read-out: TGI
[23] = test system: NCI-H522; experiment: Growth inhibition of human NCI-H522 cells assessed as cell growth at 10^-7 M incubated for 48 hrs by sulforhodamine B assay relative to control; conditions: NCI-H522, 48 h, read-out: Activity
[24] = test system: A549; experiment: Growth inhibition of human A549/ATCC cells assessed as cell growth at 10^-4 M incubated for 48 hrs by sulforhodamine B assay relative to control; conditions: A549, 48 h, read-out: Activity
[25] = test system: NCI/ADR-RES; experiment: Growth inhibition of human NCI/ADR-RES cells assessed as cell growth at 10^-6 M incubated for 48 hrs by sulforhodamine B assay relative to control; conditions: read-out: Activity
[26] = test system: NCI-H23; experiment: Growth inhibition of human NCI-H23 cells assessed as cell growth at 10^-6 M incubated for 48 hrs by sulforhodamine B assay relative to control; conditions: NCI-H23, 48 h, read-out: Activity
[27] = test system: MDA-MB-231; experiment: Growth inhibition of human MDA-MB-231 cells assessed as cell growth at 10^-5 M incubated for 48 hrs by sulforhodamine B assay relative to control; conditions: MDA-MB-231, 48 h, read-out: Activity
[28] = test system: PC-3; experiment: Growth inhibition of human PC3 cells assessed as cell growth at 10^-5 M incubated for 48 hrs by sulforhodamine B assay relative to control; conditions: PC-3, 48 h, read-out: Activity
[29] = test system: NCI-H226; experiment: Growth inhibition of human NCI-H226 cells assessed as cell growth at 10^-4 M incubated for 48 hrs by sulforhodamine B assay relative to control; conditions: NCI-H226, 48 h, read-out: Activity
[30] = read-out: pLC50 (the source's name) (converted)
[31] = read-out: LC50 (the source's name)

In the case of C#C[C@@]1(O)[C@@H](CO)O[C@@H](n2cc(Cl)c3c(N)ncnc32)[C@@H]1O, the growth at 0.01 µM [1] is reported as 85 to 88%, the GI50 [2] is reported as 202 to 298 nM and the CC50 [2] is reported as greater than 100000 nM. For the same compound, the TGI [2] was 1900 to 3200 nM, the growth at 100 µM [3] was 1% and the growth at 0.01 µM [4] was 67 to 82%. For the same compound, the growth at 0.1 µM [5] was 105 to 111%, the growth at 1 µM [6] was 3 to 12% and the growth at 0.1 µM [7] was 64 to 65%. The GI50 [8] was 134 to 152 nM, the TGI ([8]; read-out: TGI) was greater than 100000 nM and the CC50 [8, 30] was greater than 100000 nM. The TGI ([8]; read-out: pTGI (converted)) was greater than 100000 nM, the growth at 0.1 µM [9] was 76 to 80% and the growth at 0.1 µM [10] was 34 to 50%. For the same compound, the growth at 0.01 µM [11] was 88 to 92%, the growth at 1 µM [12] was 2% and the GI50 [13] was 206 to 334 nM. It also gave a TGI [13] of 2120 to 4630 nM, a CC50 [13] greater than 100000 nM and a growth at 0.01 µM [14] of 88 to 91%. For the same compound, the GI50 ([15]; read-out: GI50) was 260 to 262 nM, the CC50 [15, 31] was greater than 100000 nM and the TGI [15] was 2410 to 2460 nM. The GI50 ([15]; read-out: pGI50 (converted)) was 263 nM, the CC50 [16] was greater than 100000 nM and the TGI ([16]; read-out: TGI) was 383 nM. The GI50 ([16]; read-out: pGI50 (converted)) was 170 nM, the TGI ([16]; read-out: pTGI (converted)) was 380 nM and the growth at 0.01 µM [17] was 84%. For the same compound, the GI50 [18] was 109 to 159 nM, the TGI ([18]; read-out: TGI) was 27000 to 100000 nM and the CC50 [18] was greater than 100000 nM. It also gave a growth at 0.01 µM [19] of 82 to 88%, a growth at 0.1 µM [20] of 61 to 77% and a growth at 0.1 µM [21] of 62 to 70%. The TGI [22] was 226 to 753 nM, the CC50 [22, 30] was greater than 100000 nM and the growth at 0.1 µM [23] was 47 to 62%. For the same compound, the growth at 100 µM [24] was 8 to 12%.

With C#C[C@@]1(O)[C@@H](CO)O[C@@H](n2cc(Br)c3c(N)ncnc32)[C@@H]1O the growth at 0.01 µM [1] was 91 to 95%, the GI50 [2] was 189 to 466 nM and the CC50 [2] was greater than 100000 nM. It also gave a TGI [2] of 4120 to 13700 nM, a growth at 100 µM [3] of 4% and a growth at 1 µM [25] of 6%. The growth at 0.01 µM [4] was 70 to 84%, the growth at 0.1 µM [5] was 88 to 98% and the growth at 1 µM [6] was 21 to 26%. For the same compound, the growth at 0.1 µM [7] was 41 to 83%, the growth at 1 µM [26] was 7 to 13% and the GI50 [8] was 172 to 707 nM. For the same compound, the CC50 [8, 31] was greater than 100000 nM, the TGI ([8]; read-out: TGI) was greater than 100000 nM and the TGI ([8]; read-out: pTGI (converted)) was greater than 100000 nM. The growth at 0.1 µM [9] was 58 to 83%, the growth at 0.1 µM [10] was 18 to 45% and the growth at 0.01 µM [11] was 91 to 93%. It also gave a GI50 [13] of 326 to 372 nM, a TGI [13] of 4740 to 5410 nM and a CC50 [13] greater than 100000 nM. It also gave a growth at 10 µM [27] of 1 to 6%, a growth at 10 µM [28] of 3% and a growth at 0.01 µM [14] of 81 to 89%. The GI50 ([15]; read-out: GI50) was 150 to 261 nM, the TGI [15] was 1250 to 5750 nM and the CC50 [15, 30] was greater than 100000 nM. It also gave a GI50 ([16]; read-out: GI50) of 151 to 349 nM, a CC50 [16] of 60000 to 74900 nM and a TGI ([16]; read-out: TGI) of 11800 to 12900 nM. It also gave a growth at 0.01 µM [17] of 73 to 89%, a GI50 [18] of 62.8 to 151 nM and a TGI ([18]; read-out: TGI) greater than 100000 nM. It also gave a CC50 [18] greater than 100000 nM, a TGI ([18]; read-out: pTGI (converted)) greater than 100000 nM and a growth at 0.01 µM [19] of 89 to 95%. It also gave a growth at 0.1 µM [20] of 48 to 80%, a growth at 100 µM [29] of 23% and a growth at 0.1 µM [21] of 33 to 61%. For the same compound, the GI50 ([22]; read-out: GI50) was 17.1 to 50 nM, the CC50 [22, 31] was greater than 100000 nM and the TGI [22] was 1540 to 5270 nM. It also gave a growth at 0.1 µM [23] of 38 to 67% and a growth at 100 µM [24] of 9 to 12%.
